What all share (assay type): cell-based
Assay [1] concerns the target mouse fibroblast cell line transfected with the HER-2 oncogene (3T3/neu) (UniProt P04626, cells depend on it, species not given). The assay can be described thus: Cell proliferation assay (SRB), 3T3/neu. The note with it: EGFR −, Her-2 +++, 2 days, SRB; for GI50: read-out: CELL IC50 3T3/NEU (converted).
The subject of assay [2] is A431 cells. The assay can be described thus: Cell proliferation assay (SRB), A431. The settings on record: for IC50: Homo sapiens, A-431, 48 h, read-out: CELL IC50 A431.
The subject of assay [3] is SK-Br-3 cells. The assay can be described thus: Cell proliferation assay (SRB), SK-Br-3. The note with it: EGFR −, Her-2 +++, 2 days, SRB; for IC50: Homo sapiens, SK-BR-3, 48 h, read-out: CELL IC50 SKBr3.
Assay [4] deals with MDA-MB-435 cells. The assay can be described thus: Cell proliferation assay (SRB), MDA-MB-435. The settings on record: EGFR −, Her-2 −, 2 days, SRB; for IC50: Homo sapiens, MDA-MB-435, 48 h, read-out: CELL IC50 MDA-MB-435.
Assay [5] has as its system SW620 cells. The assay can be described thus: Cell proliferation assay (SRB), SW620. The settings on record: EGFR −, Her-2 −, 2 days, SRB; for IC50: Homo sapiens, SW-620, 48 h, read-out: CELL IC50 SW620.

Values after ≈ are worked out from the molar mass of the structure shown. Where two headings read alike, the source gives them in different places.

The term IC50 denotes the midpoint of a concentration-inhibition curve. Turning to `COc1cc2ncc(C#N)c(Nc3ccc(NCc4cccnc4)c(Cl)c3)c2cc1[N+](=O)[O-]` [Example 57, 4-{3-chloro-4-[(3-pyridinylmethyl)amino]anilino}-7-methoxy-6-nitro-3-quinolinecarbonitrile], the GI50 in assay [1] was 8740 nM. Further, the IC50 in assay [2] (EGFR +++, Her-2 +, 2 days, SRB) stood at 1.6 µg/mL (≈ 3.47 µM); in assay [3], 0.726 µg/mL (≈ 1.58 µM); in assay [4], 1.87 µg/mL (≈ 4.06 µM); in assay [5], 3.21 µg/mL (≈ 6.96 µM).

In the case of `CCOc1cc2ncc(C#N)c(Nc3ccc(Nc4nnc(C(F)(F)F)s4)c(Cl)c3)c2cc1N` [Example 59, 6-amino-4-(3-chloro-4-{[5-(trifluoromethyl)-1,3,4-thiadiazol-2-yl]amino}anilino)-7-ethoxy-3-quinolinecarbonitrile], in assay [1], the GI50 was above 9880 nM. For the same compound, the half-inhibitory concentration (IC50) in assay [2] (EGFR +++, Her-2 +, 2 days, SRB) is above 5 µg/mL; in assay [3], 0.551 µg/mL (≈ 1.09 µM); in assay [4] it was 0.91 µg/mL (≈ 1.8 µM); in assay [5] it was 1.38 µg/mL (≈ 2.73 µM).

As to `CCOc1cc2ncc(C#N)c(Nc3ccc(Cn4ccnc4)c(Cl)c3)c2cc1[N+](=O)[O-]` [Example 60, 4-[3-chloro-4-(1H-imidazol-1-ylmethyl)anilino]-7-ethoxy-6-nitro-3-quinolinecarbonitrile], the GI50 in assay [1] is above 11100 nM. Moreover, the IC50 in assay [2] (EGFR +++, Her-2 +, 2 days, SRB) was above 5 µg/mL; in assay [3], 2.44 µg/mL (≈ 5.44 µM); in assay [4], above 5 µg/mL; in assay [5], above 5 µg/mL.

Turning to `CCOc1cc2ncc(C#N)c(Nc3ccc(Cn4ccnc4)c(Cl)c3)c2cc1N` [Example 61, 6-amino-4-[3-chloro-4-(1H-imidazol-1-ylmethyl)anilino]-7-ethoxy-3-quinolinecarbonitrile], the GI50 in assay [1] is above 11900 nM. In addition, the IC50 is above 5 µg/mL in assay [2] (EGFR +++, Her-2 +, 2 days, SRB); 0.75 µg/mL (≈ 1.79 µM) in assay [3]; above 5 µg/mL in assay [4]; above 5 µg/mL in assay [5].

Take `CCOc1cc2ncc(C#N)c(Nc3ccc(Cn4ccnc4)c(Cl)c3)c2cc1NC(=O)/C=C/CN(C)C` [Example 62, (E)-N-{4-[3-chloro-4-(1H-imidazol-1-ylmethyl)anilino]-3-cyano-7-ethoxy-6-quinolinyl}-4-(dimethylamino)-2-butenamide]: in assay [1], the GI50 is 1870 nM. Moreover, the IC50 was determined as 0.95 µg/mL (≈ 1.79 µM) in assay [2], 0.045 µg/mL (≈ 0.0849 µM) in assay [3], 2.1 µg/mL (≈ 3.96 µM) in assay [4] and 3.8 µg/mL (≈ 7.17 µM) in assay [5].

Turning to `CCOc1cc2ncc(C#N)c(Nc3ccc(Sc4nccc(C)n4)c(Cl)c3)c2cc1[N+](=O)[O-]` [Example 63, 4-{3-chloro-4-[(4-methyl-2-pyrimidinyl)sulfanyl]anilino}-7-ethoxy-6-nitro-3-quinolinecarbonitrile], in assay [1], the GI50 was 3020 nM. In addition, the IC50 came to 1.2 µg/mL (≈ 2.43 µM) in assay [2] (EGFR +++, Her-2 +, 2 days, SRB); 0.45 µg/mL (≈ 0.913 µM) in assay [3]; 1.3 µg/mL (≈ 2.64 µM) in assay [4]; 0.9 µg/mL (≈ 1.83 µM) in assay [5].

Take `CCOc1cc2ncc(C#N)c(Nc3ccc(Sc4nccc(C)n4)c(Cl)c3)c2cc1N` [Example 64, 6-amino-4-{3-chloro-4-[(4-methyl-2-pyrimidinyl)sulfanyl]anilino}-7-ethoxy-3-quinolinecarbonitrile]: the GI50 in assay [1] was 6540 nM. The IC50 in assay [2] (EGFR +++, Her-2 +, 2 days, SRB) is 1.53 µg/mL (≈ 3.3 µM); in assay [3] it was above 5 µg/mL; in assay [4], 1.8 µg/mL (≈ 3.89 µM); in assay [5], 2 µg/mL (≈ 4.32 µM).

With `CCOc1cc2ncc(C#N)c(Nc3ccc(Sc4nccc(C)n4)c(Cl)c3)c2cc1NC(=O)/C=C/CN(C)C` [Example 65, (E)-N-(4-{3-chloro-4-[(4-methyl-2-pyrimidinyl)sulfanyl]anilino}-3-cyano-7-ethoxy-6-quinolinyl)-4-(dimethylamino)-2-butenamide], the GI50 in assay [1] is 5.23 nM. In addition, the IC50 in assay [2] (EGFR +++, Her-2 +, 2 days, SRB) amounted to 0.12 µg/mL (≈ 0.209 µM); in assay [3], 0.001 µg/mL (≈ 0.00174 µM); in assay [4], 0.3 µg/mL (≈ 0.523 µM); in assay [5], 0.2 µg/mL (≈ 0.348 µM).

`CCOc1cc2ncc(C#N)c(Nc3ccc(Sc4nc(C)cc(C)n4)c(Cl)c3)c2cc1NC(=O)/C=C/CN(C)C` [Example 66, (E)-N-(4-{3-chloro-4-[(4,6-dimethyl-2-pyrimidinyl)sulfanyl]anilino}-3-cyano-7-ethoxy-6-quinolinyl)-4-(dimethylamino)-2-butenamide]: the GI50 in assay [1] is 17 nM. Also, the IC50 was 0.24 µg/mL (≈ 0.408 µM) in assay [2] (EGFR +++, Her-2 +, 2 days, SRB); 0.006 µg/mL (≈ 0.0102 µM) in assay [3]; 0.2 µg/mL (≈ 0.34 µM) in assay [4]; 0.32 µg/mL (≈ 0.544 µM) in assay [5].

Regarding `CCOc1cc2ncc(C#N)c(Nc3ccc(Sc4nc(-c5ccccc5)cs4)c(C(F)(F)F)c3)c2cc1[N+](=O)[O-]` [Example 67, 7-ethoxy-6-nitro-4-[4-[(4-phenyl-1,3-thiazol-2-yl)sulfanyl]-3-(trifluoromethyl)anilino]-3-quinolinecarbonitrile], the GI50 in assay [1] was 1150 nM. Further, the IC50 in assay [2] (EGFR +++, Her-2 +, 2 days, SRB) came out at 0.76 µg/mL (≈ 1.28 µM); in assay [3] it was 0.268 µg/mL (≈ 0.451 µM); in assay [4], 0.4 µg/mL (≈ 0.674 µM); in assay [5] it was 0.4 µg/mL (≈ 0.674 µM).

Regarding `CCOc1cc2ncc(C#N)c(Nc3ccc(Sc4nc(-c5ccccc5)cs4)c(C(F)(F)F)c3)c2cc1N` [Example 68, 6-Amino-7-ethoxy-4-[4-(4-phenyl-thiazol-2-ylsulfanyl)-3-trifluoromethyl-phenylamino]-quinoline-3-carbonitrile], in assay [1], the GI50 was 4470 nM. Moreover, the concentration for half-maximal inhibition (IC50) in assay [2] (EGFR +++, Her-2 +, 2 days, SRB) was above 5 µg/mL; in assay [3] it was 0.943 µg/mL (≈ 1.67 µM); in assay [4], 2.5 µg/mL (≈ 4.44 µM); in assay [5] it was 3.1 µg/mL (≈ 5.5 µM).

`CCOc1cc2ncc(C#N)c(Nc3ccc(Sc4nc(-c5ccccc5)cs4)c(C(F)(F)F)c3)c2cc1NC(=O)/C=C/CN(C)C` [Example 69, (E)-N-{3-cyano-7-ethoxy-4-[4-[(4-phenyl-1,3-thiazol-2-yl)sulfanyl]-3-(trifluoromethyl)anilino]-6-quinolinyl}-4-(dimethylamino)-2-butenamide]: the GI50 in assay [1] is 622 nM. Further, the IC50 was 0.3 µg/mL (≈ 0.445 µM) in assay [2] (EGFR +++, Her-2 +, 2 days, SRB); above 5 µg/mL in assay [3]; 0.3 µg/mL (≈ 0.445 µM) in assay [4]; 0.6 µg/mL (≈ 0.889 µM) in assay [5].

As to `COc1cc2ncc(C#N)c(Nc3ccc(Sc4ncc(-c5ccccc5)s4)c(Cl)c3)c2cc1NC(=O)/C=C/CN(C)C` [Example 70, (E)-N-(4-{3-chloro-4-[(5-phenyl-1,3-thiazol-2-yl)sulfanyl]anilino}-3-cyano-7-methoxy-6-quinolinyl)-4-(dimethylamino)-2-butenamide], in assay [1], the GI50 was 191 nM. The IC50 in assay [2] (EGFR +++, Her-2 +, 2 days, SRB) was determined as 0.22 µg/mL (≈ 0.351 µM); in assay [3] it was 0.01 µg/mL (≈ 0.0159 µM); in assay [4] it was 0.08 µg/mL (≈ 0.128 µM); in assay [5] it was 0.5 µg/mL (≈ 0.797 µM).

`COCCN(C)C/C=C/C(=O)Nc1cc2c(Nc3ccc(Sc4nccs4)c(Cl)c3)c(C#N)cnc2cc1OC` [Example 71, (E)-N-{4-[3-chloro-4-(1,3-thiazol-2-ylsulfanyl)anilino]-3-cyano-7-methoxy-6-quinolinyl}-4-[(2-methoxyethyl)(methyl)amino]-2-butenamide]: the GI50 in assay [1] was 3.36 nM. Besides, the IC50 came out at 0.03 µg/mL (≈ 0.0504 µM) in assay [2] (EGFR +++, Her-2 +, 2 days, SRB); 0.002 µg/mL (≈ 0.00336 µM) in assay [3]; 0.09 µg/mL (≈ 0.151 µM) in assay [4]; 0.4 µg/mL (≈ 0.672 µM) in assay [5].

In the case of `CCOc1cc2ncc(C#N)c(Nc3ccc(Sc4nc(-c5ccccc5)cs4)c(Cl)c3)c2cc1NC(=O)/C=C/CN(C)C` [Example 72, (E)-N-(4-{3-chloro-4-[(4-phenyl-1,3-thiazol-2-yl)sulfanyl]anilino}-3-cyano-7-ethoxy-6-quinolinyl)-4-(dimethylamino)-2-butenamide], the GI50 in assay [1] was 31.2 nM. Moreover, the IC50 in assay [2] (EGFR +++, Her-2 +, 2 days, SRB) is 0.24 µg/mL (≈ 0.374 µM); in assay [3] it was 0.006 µg/mL (≈ 0.00936 µM); in assay [4] it was 0.18 µg/mL (≈ 0.281 µM); in assay [5] it was 0.54 µg/mL (≈ 0.842 µM).

Consider `CCOc1cc2ncc(C#N)c(Nc3ccc(Sc4nc(C)cc(C)n4)c(Cl)c3)c2cc1[N+](=O)[O-]` [Example 74, 4-{3-chloro-4-[(4,6-dimethyl-2-pyrimidinyl)sulfanyl]anilino}-7-ethoxy-6-nitro-3-quinolinecarbonitrile], for which, in assay [1], the GI50 is above 9860 nM. Besides, the half-inhibitory concentration (IC50) in assay [2] (EGFR +++, Her-2 +, 2 days, SRB) is above 5 µg/mL; in assay [3] it was above 5 µg/mL; in assay [4], 4.1 µg/mL (≈ 8.09 µM); in assay [5] it was above 5 µg/mL.

Turning to `CCOc1cc2ncc(C#N)c(Nc3ccc(Sc4nc(C)cc(C)n4)c(Cl)c3)c2cc1N` [Example 75, 6-amino-4-{3-chloro-4-[(4,6-dimethyl-2-pyrimidinyl)sulfanyl]anilino}-7-ethoxy-3-quinolinecarbonitrile], the GI50 in assay [1] was 4440 nM. Also, the half-inhibitory concentration (IC50) in assay [2] (EGFR +++, Her-2 +, 2 days, SRB) was found to be 0.76 µg/mL (≈ 1.59 µM); in assay [3], 0.98 µg/mL (≈ 2.05 µM); in assay [4], 1.3 µg/mL (≈ 2.73 µM); in assay [5], 1.36 µg/mL (≈ 2.85 µM).

“(E)-N-{4-[3-chloro-4-(1H-imidazol-1-yl)anilino]-3-cyano-7-methoxy-6-quinolinyl}-azol-1-yl)anilino]-4-(dimethylamino)-2-)anilino-2-butenamide [Example 43]”: the “CELL IC50 3T3/NEU” value in assay [1] came out at 1.46 µg/mL. Moreover, in assay [2] (EGFR +++, Her-2 +, 2 days, SRB), the “CELL IC50 A431” value was 0.51 µg/mL. Also, in assay [3], the “CELL IC50 SKBr3” value came to 0.32 µg/mL. The “CELL IC50 MDA-MB-435” value in assay [4] was 0.57 µg/mL. The “CELL IC50 SW620” value in assay [5] was determined as 1.45 µg/mL.

The values are drawn from patent US7982043B2, “Protein tyrosine kinase enzyme inhibitors” (Wyeth LLC, priority 2003, dated 2011).
